Assay results taken from patent US7320979B2, “N-[(piperazinyl)hetaryl]arylsulfonamide compounds” (Abbott GmbH & Co. KG., priority 2003, dated 2008).
Where a name gives a salt, the structure may show the parent alone.

Columns and labels:
[1] = target: T1, human dopamine D3 receptors (Homo sapiens, UniProt P35462); experiment: Dopamine D3 receptor binding, displacement of [125I]-iodosulpride; conditions: membranes of HEK-293 cells stably expressing human D3 receptors; 0.1 nM [125I]-iodosulpride; 25° C., 60 minutes
T1 construct: expressed in transfected cells; host or cells: HEK-293
T1 sequence (P35462 whole entry): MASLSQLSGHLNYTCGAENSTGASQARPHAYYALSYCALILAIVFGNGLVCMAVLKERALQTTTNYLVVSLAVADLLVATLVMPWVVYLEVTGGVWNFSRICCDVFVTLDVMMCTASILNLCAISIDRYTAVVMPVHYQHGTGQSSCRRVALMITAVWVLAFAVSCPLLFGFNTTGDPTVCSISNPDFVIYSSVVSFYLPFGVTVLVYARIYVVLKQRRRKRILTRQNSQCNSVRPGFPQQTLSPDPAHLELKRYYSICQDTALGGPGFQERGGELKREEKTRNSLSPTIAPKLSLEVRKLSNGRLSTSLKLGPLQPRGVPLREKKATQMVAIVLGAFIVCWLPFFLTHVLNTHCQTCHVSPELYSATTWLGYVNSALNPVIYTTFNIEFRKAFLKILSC
Protocol: (§1) The substance to be tested was either dissolved in methanol/Chremophor® (BASF-AG) or in dimethyl sulfoxide and then diluted with water to the desired concentration.
(§2) Each assay mixture was run in triplicate.
The incubation buffer contained 50 mM tris, 120 mM NaCl, 5 mM KCl, 2 mM CaCl2, 2 mM MgCl2 and 0.1% bovine serum albumin, 10 μM […] and 0.1% ascorbic acid (prepared fresh daily). The buffer was adjusted to pH 7.4 with HCl.
(§3) After having been incubated at 25° C. for 60 minutes, the assay mixtures were filtered through a Whatman GF/B glass fiber filter under vacuum using a cell collecting device. The filters were transferred to scintillation viols using a filter transfer system. After 4 ml of Ultima Gold® (Packard) have been added, the samples were shaken for one hour and the radioactivity was then counted in a Beta-Counter (Packard, Tricarb 2000 or 2200CA). The cpm values were converted into dpm using a standard quench series and the program belonging to the instrument.
(§4) The inhibition curves were analyzed by means of iterative nonlinear regression analysis using the Statistical Analysis System (SAS) which is similar to the “LIGAND” program described by Munson and Rodbard.

[2] = target: T2, human dopamine D2L receptors (long isoform) (Homo sapiens, UniProt P14416); experiment: Dopamine D2L receptor binding, displacement of [125I] iodospiperone; conditions: footnote: ratio of the Ki values of the D3 and D2L binding tests
T2 construct: expressed in transfected cells; host or cells: HEK-293
T2 sequence (P14416 whole entry, canonical isoform): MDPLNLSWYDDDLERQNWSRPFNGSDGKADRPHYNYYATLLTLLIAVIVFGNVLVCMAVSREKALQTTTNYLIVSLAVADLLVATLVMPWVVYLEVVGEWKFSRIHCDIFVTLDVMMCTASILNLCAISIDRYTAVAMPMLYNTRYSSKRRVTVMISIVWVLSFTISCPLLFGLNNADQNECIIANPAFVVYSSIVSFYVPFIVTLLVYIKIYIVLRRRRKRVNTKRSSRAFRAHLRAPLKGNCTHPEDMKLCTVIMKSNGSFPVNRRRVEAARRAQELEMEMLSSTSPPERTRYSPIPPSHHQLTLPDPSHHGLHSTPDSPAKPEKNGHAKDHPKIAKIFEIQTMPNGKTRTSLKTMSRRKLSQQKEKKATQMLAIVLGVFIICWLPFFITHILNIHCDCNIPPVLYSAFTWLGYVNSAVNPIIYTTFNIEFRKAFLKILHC
Protocol: as §1, §2
The incubation buffer contained 50 mM tris, 120 mM NaCl, 5 mM KCl, 2 mM CaCl2, 2 mM MgCl2 and 0.1% bovine serum albumin. The buffer was adjusted to pH 7.4 with HCl.
as §3, §4

Molecule	Ki [1] [nM]	Selectivity vs. D2L [2]
CCCN1CCN(c2cc(C)c(NS(=O)(=O)c3ccc(C(C)C)cc3)cn2)CC1.Cl [Example 38, 4-Isopropyl-N-[4-methyl-6-(4-propylpiperazin-1-yl)pyridin-3-yl]-benzenesulfonamide hydrochloride]	17.2	22
C=Cc1ccc(S(=O)(=O)Nc2cnc(N3CCN(CCC)CC3)cc2C)cc1.Cl [Example 39, N-[4-Methyl-6-(4-propylpiperazin-1-yl)pyridin-3-yl]-4-vinylbenzenesulfonamide hydrochloride]	34.6	30
C=CCN1CCN(c2ccc(NS(=O)(=O)c3ccc(C(C)(C)C)cc3)c(C)n2)CC1 [Example 44, 4-tert-Butyl-[N-[2-(4-allylpiperazin-1-yl)-6-methylpyridin-5-yl]-benzenesulfonamide, fumarate]	1.4	41
CCCN1CCN(c2ccc(NS(=O)(=O)c3ccc(CC)cc3)cn2)C[C@@H]1C.Cl [Example 46, 4-Ethyl-N-[6-((S)-3-methyl-4-propyl-piperazin-1-yl)-pyridin-3-yl]-benzenesulfonamide, hydrochloride]	7.1	50
C=Cc1ccc(S(=O)(=O)Nc2ccc(N3CCN(CCC)[C@@H](C)C3)nc2)cc1.Cl [Example 47, N-[6-((S)-3-methyl-4-propyl-piperazin-1-yl)-pyridin-3-yl]-4-vinylbenzenesulfonamide, hydrochloride]	6.1	118
C=CCN1CCN(c2ccc(NS(=O)(=O)c3ccc(C(C)C)cc3)cn2)C[C@@H]1CC.Cl [Example 50, N-[6-((S)-4-Allyl-3-ethyl-piperazin-1-yl)-pyridin-3-yl]-4-isopropylbenzenesulfonamide, hydrochloride]	9.9	57
CC(C)c1ccc(S(=O)(=O)Nc2cnc(N3CCNCC3)nc2)cc1 [Example 52, 4-Isopropyl-N-(2-piperazin-1-yl-pyrimidin-5-yl)-benzenesulfonamide]	14.2	63
CCN1CCN(c2ncc(NS(=O)(=O)c3ccc(C(C)C)cc3)cn2)CC1.Cl [Example 53, N-[2-(4-Ethyl-piperazin-1-yl)-pyrimidin-5-yl]-4-isopropylbenzenesulfonamide, hydrochloride]	8.8	149
CCCN1CCN(c2ncc(NS(=O)(=O)c3ccc(CC)cc3)cn2)C[C@@H]1C.Cl [Example 57, 4-Ethyl-N-[2-((S)-3-methyl-4-propyl-piperazin-1-yl)-pyrimidin-5-yl]-benzenesulfonamide, hydrochloride]	7.3	234
C=Cc1ccc(S(=O)(=O)Nc2cnc(N3CCN(CCC)[C@@H](C)C3)nc2)cc1.Cl [Example 58, N-[2-((S)-3-Methyl-4-propyl-piperazin-1-yl)-pyrimidin-5-yl]-4-vinylbenzenesulfonamide, hydrochloride]	6.2	254
C=CCN1CCN(c2ccc(OS(=O)(=O)c3ccc(C(C)C)cc3)cn2)CC1 [Example 59, 4-Isopropyl-benzenesulfonic acid 6-(4-allyl-piperazin-1-yl)-pyridin-3-yl ester]	16.2	75
CCCN1CCN(c2ccc(OS(=O)(=O)c3ccc(C(C)C)cc3)cn2)CC1.Cl [Example 60, 4-Isopropyl-benzenesulfonic acid 6-(4-propyl-piperazin-1-yl)-pyridin-3-yl ester, hydrochloride]	17.4	47
N-[2-(4-Allylpiperazin-1-yl)pyridin-5-yl]-4-(N-pyrrolidinyl)benzenesulfonamide fumarate [Example 42]	5.3	33

Results, then the molecule that gave them:

Ki [1] [nM]	Selectivity vs. D2L [2]	Molecule
2.7	86	C=CCN1CCN(c2cc(C)c(NS(=O)(=O)c3ccc(C(C)C)cc3)cn2)CC1.Cl [Example 37, N-[6-(4-Allylpiperazin-1-yl)-4-methylpyridin-3-yl]-4-isopropylbenzenesulfonamide hydrochloride]
1.1	80	C=CCN1CCN(c2ccc(NS(=O)(=O)c3ccc(C(C)C)cc3)c(C)n2)CC1 [Example 43]
1.4	24	C=CCN1CCN(c2ccc(NS(=O)(=O)c3ccc(C(C)(C)CC)cc3)c(C)n2)CC1 [Example 45, 4-tert-pentyl-[N-[2-(4-Allylpiperazin-1-yl)-6-methylpyridin-5-yl]-benzenesulfonamide, Fumarate]
0.8	21	C=CCN1CCN(c2ccc(NS(=O)(=O)c3ccc(C(C)C)cc3)c(OC)n2)C[C@@H]1C.Cl [Example 48, N-[6-((S)-4-Allyl-3-methyl-piperazin-1-yl)-2-methoxy-pyridin-3-yl]-4-isopropylbenzenesulfonamide, hydrochloride]
0.4	19	CCCN1CCN(c2ccc(NS(=O)(=O)c3ccc(C(C)C)cc3)c(OC)n2)C[C@@H]1C.Cl [Example 49, 4-Isopropyl-N-[2-methoxy-6-((S)-3-methyl-4-propyl-piperazin-1-yl)-pyridin-3-yl]-benzenesulfonamide, hydrochloride]
3.1	101	CCCN1CCN(c2ccc(NS(=O)(=O)c3ccc(C(C)C)cc3)cn2)C[C@@H]1CC.Cl [Example 51, N-[6-((S)-3-Ethyl-4-propyl-piperazin-1-yl)-pyridin-3-yl]-4-isopropylbenzenesulfonamide, hydrochloride]
2.3	84	CCN1CCN(c2ncc(NS(=O)(=O)c3ccc(C(C)C)cc3)cn2)C[C@@H]1C.Cl [Example 54, N-[2-((S)-4-Ethyl-3-methyl-piperazin-1-yl)-pyrimidin-5-yl]-4-isopropylbenzenesulfonamide, hydrochloride]
2.9	159	C=CCN1CCN(c2ncc(NS(=O)(=O)c3ccc(C(C)C)cc3)cn2)C[C@@H]1C.Cl [Example 55, N-[2-((S)-4-Allyl-3-methyl-piperazin-1-yl)-pyrimidin-5-yl]-4-isopropyl-benzenesulfonamide, hydrochloride]
1.6	399	CCCN1CCN(c2ncc(NS(=O)(=O)c3ccc(C(C)C)cc3)cn2)C[C@@H]1C.Cl [Example 56, 4-Isopropyl-N-[2-((S)-3-methyl-4-propyl-piperazin-1-yl)-pyrimidin-5-yl]-benzenesulfonamide, hydrochloride]
